The test system of data set [1] is Rattus norvegicus. Kind of data set: Reduction in food intake in Sprague-Dawley rat at 3 nmol/kg measured 0 to 24 hrs post dose relative to control. In kind it is functional. Set-up: scale not given: the % may be the effect or the level left.
The test system of data set [2] is Rattus norvegicus. The experiment in a line: Reduction in food intake in Sprague-Dawley rat at 3 nmol/kg measured 24 to 48 hrs post dose relative to control. The class given is functional. Also noted: scale not given: the % may be the effect or the level left.
Data set [3] has as its target T1, Amylin receptor AMY3; CALCR/RAMP3 (Homo sapiens, UniProt O60896+P30988).
T1 sequence (P30988 whole entry): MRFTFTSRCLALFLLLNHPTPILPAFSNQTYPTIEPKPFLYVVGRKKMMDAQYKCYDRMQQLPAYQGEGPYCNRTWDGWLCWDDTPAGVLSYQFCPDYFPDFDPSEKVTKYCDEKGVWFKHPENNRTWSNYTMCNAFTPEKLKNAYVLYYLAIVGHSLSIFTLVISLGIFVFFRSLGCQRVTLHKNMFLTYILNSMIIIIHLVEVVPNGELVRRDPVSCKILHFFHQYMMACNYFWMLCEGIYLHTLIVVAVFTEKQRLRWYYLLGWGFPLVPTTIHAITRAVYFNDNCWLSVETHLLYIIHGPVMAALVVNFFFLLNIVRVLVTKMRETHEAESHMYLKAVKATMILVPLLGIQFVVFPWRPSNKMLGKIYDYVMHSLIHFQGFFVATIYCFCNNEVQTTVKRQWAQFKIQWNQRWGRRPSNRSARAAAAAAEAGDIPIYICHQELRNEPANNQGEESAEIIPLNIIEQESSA
T1 sequence (O60896 whole entry): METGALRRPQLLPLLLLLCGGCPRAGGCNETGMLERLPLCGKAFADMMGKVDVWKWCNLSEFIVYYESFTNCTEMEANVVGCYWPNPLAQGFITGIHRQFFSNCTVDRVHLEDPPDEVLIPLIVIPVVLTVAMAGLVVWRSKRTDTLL
The experiment in a line: Agonist activity at human amylin receptor expressed in BHK570 cells co-expressing RAMP3 assessed as increase in intracellular cAMP concentration incubated for 3 hrs in absence of albumin by CRE luciferase reporter gene assay. The class given is functional, cell-based.

Data set [4] deals with T2, Calcitonin receptor (Homo sapiens, UniProt P30988).
T2 sequence (P30988 whole entry): T1 sequence (P30988 whole entry)
Kind of data set: Agonist activity at human calcitonin receptor expressed in BHK570 cells assessed as increase in intracellular cAMP concentration incubated for 3 hrs in absence of albumin by CRE luciferase reporter gene assay. The class given is functional, cell-based. For orientation: A reporter such as luciferase makes a cellular process visible.

The target of data set [5] is T1, Amylin receptor AMY3; CALCR/RAMP3. Kind of data set: Agonist activity at human amylin receptor expressed in BHK570 cells co-expressing RAMP3 assessed as increase in intracellular cAMP concentration incubated for 3 hrs in presence of 10% FBS by CRE luciferase reporter gene assay. The class given is functional, cell-based.
The target of data set [6] is T2, Calcitonin receptor. Kind of data set: Agonist activity at human calcitonin receptor expressed in BHK570 cells assessed as increase in intracellular cAMP concentration incubated for 3 hrs in presence of 10% FBS by CRE luciferase reporter gene assay. The class given is functional, cell-based.
Data set [7] in a line: Solubility in 100 mM glycylglycine buffer at pH 3.0 incubated for 18 hrs by UPLC analysis. The class given is physicochemical.
Data set [8] is described as follows: Solubility in 100 mM glycylglycine buffer at pH 4.0 incubated for 18 hrs by UPLC analysis. In kind it is physicochemical.
Data set [9] is described as follows: Solubility in 100 mM bistrispropane buffer at pH 6.0 incubated for 18 hrs by UPLC analysis. The class given is physicochemical.
Data set [10] can be described thus: Solubility in 100 mM glycylglycine buffer at pH 5.0 incubated for 18 hrs by UPLC analysis. In kind it is physicochemical.
A short description of data set [11]: Solubility in 100 mM bistrispropane buffer at pH 6.5 incubated for 18 hrs by UPLC analysis. The class given is physicochemical.
Data set [12] is described as follows: Solubility in 100 mM bistrispropane buffer at pH 7.0 incubated for 18 hrs by UPLC analysis. In kind it is physicochemical.
Data set [13] in a line: Solubility in 100 mM bistrispropane buffer at pH 7.5 incubated for 18 hrs by UPLC analysis. The class given is physicochemical.
The nature of data set [14]: Solubility in 100 mM bistrispropane buffer at pH 8.0 incubated for 18 hrs by UPLC analysis. In kind it is physicochemical.
Data set [15] deals with T1, Amylin receptor AMY3; CALCR/RAMP3. The experiment in a line: Displacement of [125I]-labeled rat amylin from human amylin receptor expressed in BHK tkts13 whole cells co-expressing RAMP3 incubated for 60 mins by scintillation proximity assay. The class given is cell-based.
Data set [16] deals with T2, Calcitonin receptor. The experiment in a line: Displacement of [125I]-labeled human calcitonin from human calcitonin receptor expressed in BHK tkts13 whole cells incubated for 60 mins by scintillation proximity assay. The class given is cell-based. On the technique in general: In a radioligand displacement assay an active substance lowers the binding of a labelled ligand.

Data set [17] is described as follows: Stability in pH 7.5 buffer assessed as lag time for fibril formation at 1 uM by Thioflavin T based fluorescence assay. The class given is physicochemical. Particulars: pH 7.5, 1 µM.
Data set [18] is described as follows: Stability in pH 7.5 buffer assessed as compound recovery at 1 uM by Thioflavin T based fluorescence assay. In kind it is physicochemical. The following applies: read-out: Drug recovery.
For data set [19], the target named is T2, Calcitonin receptor. Kind of data set: Displacement of [125I]-labeled human calcitonin from human calcitonin receptor expressed in BHK tkts13 cell membranes incubated for 1 hr by scintillation proximity assay.
The target of data set [20] is T3, Amylin receptor AMY3; CALCR/RAMP3 (Rattus norvegicus, UniProt P32214+Q9JJ73).
T3 sequence (P32214 whole entry): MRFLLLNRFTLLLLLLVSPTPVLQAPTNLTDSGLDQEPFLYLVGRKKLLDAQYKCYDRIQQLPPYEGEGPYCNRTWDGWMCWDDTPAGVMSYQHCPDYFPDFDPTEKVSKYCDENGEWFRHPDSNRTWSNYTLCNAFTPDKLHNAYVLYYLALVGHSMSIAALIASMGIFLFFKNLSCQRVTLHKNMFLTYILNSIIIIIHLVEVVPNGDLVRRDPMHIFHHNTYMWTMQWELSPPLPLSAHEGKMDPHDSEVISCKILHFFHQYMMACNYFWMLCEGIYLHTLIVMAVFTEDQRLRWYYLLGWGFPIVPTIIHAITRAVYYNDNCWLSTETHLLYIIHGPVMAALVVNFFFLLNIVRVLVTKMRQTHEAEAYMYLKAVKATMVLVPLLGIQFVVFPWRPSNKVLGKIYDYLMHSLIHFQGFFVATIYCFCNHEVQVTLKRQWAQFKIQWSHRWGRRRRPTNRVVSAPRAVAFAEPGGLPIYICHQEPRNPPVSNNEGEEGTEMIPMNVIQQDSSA
T3 sequence (Q9JJ73 whole entry): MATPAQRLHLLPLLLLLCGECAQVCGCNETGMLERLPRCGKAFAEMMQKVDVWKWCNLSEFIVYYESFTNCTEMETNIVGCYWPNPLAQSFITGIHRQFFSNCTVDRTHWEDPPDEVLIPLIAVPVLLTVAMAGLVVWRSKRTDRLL
Kind of data set: Displacement of [125I]-labeled rat amylin from rat amylin receptor expressed in BHK tkts13 cell membranes co-expressing RAMP3 incubated for 120 mins by scintillation proximity assay.

Structures are written as SMILES. Numbered stars: 1 amine (or outer) side, 2 acyl side, 3 side chain; on linkers, the order of the positions; unused ones are H or OH. Side chains are listed from the residue outwards. Peptide text beside a SMILES is read from it. * marks the point of attachment. C20 diacid = O=C(O)CCCCCCCCCCCCCCCCCCC(=O)*; γGlu = O=C(O)[C@H](CCC(=O)[*:2])N[*:1] A value given as a limit tells only on which side of the number the result lay.

As usually defined, the EC50 is the concentration needed to bring the measured effect to its halfway point. What is called solubility is the dissolved amount per volume that the medium holds. A word on the IC50: it is the concentration that gives 50% inhibition.

For the compound `CC(C)C[C@H](NC(=O)[C@H](C)NC(=O)[C@H](C)NC(=O)[C@@H](NC(=O)[C@H](CO)NC(=O)[C@H](CC(C)C)NC(=O)[C@H](CCC(=O)O)NC(=O)[C@H](CO)NC(=O)[C@H](C)NC(=O)CC[C@H](NC(=O)CCCCCCCCCCCCCCCCCCC(=O)O)C(=O)O)[C@@H](C)O)C(=O)NCC(=O)N[C@@H](CCCNC(=N)N)C(=O)N[C@@H](CC(C)C)C(=O)N[C@@H](CO)C(=O)N[C@@H](C)C(=O)N[C@@H](CCC(=O)O)C(=O)N[C@@H](CC(C)C)C(=O)N[C@@H](Cc1cnc[nH]1)C(=O)N[C@@H](CCC(=O)O)C(=O)N[C@@H](CC(C)C)C(=O)N[C@@H](C)C(=O)N[C@H](C(=O)N[C@@H](CC(C)C)C(=O)N1CCC[C@H]1C(=O)N[C@@H](Cc1cnc[nH]1)C(=O)N[C@H](C(=O)N[C@@H](CCC(=O)O)C(=O)N[C@H](C(=O)NCC(=O)N[C@@H](CO)C(=O)NCC(=O)N[C@@H](CO)C(=O)N1CCC[C@H]1C(N)=O)[C@@H](C)O)[C@@H](C)O)[C@@H](C)O` ({C20 diacid-γGlu}-ASELSTAALGRLSAELHELATLPHTETGSGSP-NH2), the values for the Activity in data set [1] and in [2] were 55% and 62%, respectively. The concentration giving a half-maximal response (EC50) was 0.027 nM in data set [3], 0.018 nM in data set [4], 0.185 nM in [5] and 0.022 nM in data set [6]. Moreover, the solubility at 18 h in data set [7], in data set [8], in data set [9], in [10], in data set [11] and in [12] was at least 200 µM each time. Besides, the solubility at 18 h in [13] and in data set [14] was at least 200 µM each time. Also, the IC50 is 0.608 nM in [15] and 0.442 nM in data set [16].
For the compound `CC(C)C[C@H](NC(=O)CNC(=O)[C@H](CO)NC(=O)[C@H](C)N)C(=O)N[C@@H](CO)C(=O)N[C@H](C(=O)N[C@@H](C)C(=O)N[C@@H](C)C(=O)N[C@@H](CC(C)C)C(=O)NCC(=O)N[C@@H](CCCNC(=N)N)C(=O)N[C@@H](CC(C)C)C(=O)N[C@@H](CO)C(=O)N[C@@H](CCC(N)=O)C(=O)N[C@@H](CCC(=O)O)C(=O)N[C@@H](CC(C)C)C(=O)N[C@@H](Cc1cnc[nH]1)C(=O)N[C@@H](CCC(=O)O)C(=O)N[C@@H](CC(C)C)C(=O)N[C@@H](CCC(N)=O)C(=O)N[C@H](C(=O)N[C@@H](Cc1ccc(O)cc1)C(=O)N1CCC[C@H]1C(=O)N[C@@H](CCCNC(=N)N)C(=O)N[C@H](C(=O)N[C@@H](CCC(=O)O)C(=O)N[C@H](C(=O)NCC(=O)N[C@@H](CO)C(=O)N[C@@H](CCCCNC(=O)CC[C@H](NC(=O)CCCCCCCCCCCCCCCCCCC(=O)O)C(=O)O)C(=O)N[C@H](C(=O)N[C@@H](Cc1ccc(O)cc1)C(N)=O)[C@@H](C)O)[C@@H](C)O)[C@@H](C)O)[C@@H](C)O)[C@@H](C)O` (H-ASGLSTAALGRLSQELHELQTYPRTETGSK([γGlu-C20 diacid])TY-NH2), the Activity in data set [1] is 4%; in data set [2] it was -5%. The figures for the EC50 in data set [3], in data set [4] and in data set [6] were 0.068 nM, 0.036 nM and 0.113 nM, respectively. Further, in [17], the Time was found to be 0.3 h. Besides, the remaining at 1 µM in data set [18] worked out at 0%. Moreover, the solubility at 18 h in data set [7], in data set [8], in [10], in data set [13] and in data set [14] was at least 200 µM in each case. Also, the IC50 in [15] is 5.45 nM; in [16], 1.27 nM.
As to `CC(C)C[C@H](NC(=O)[C@H](C)NC(=O)[C@H](C)NC(=O)[C@@H](NC(=O)[C@H](CO)NC(=O)[C@H](CC(C)C)NC(=O)[C@H](CCC(=O)O)NC(=O)[C@H](CO)NC(=O)[C@H](C)NC(=O)CC[C@H](NC(=O)CCCCCCCCCCCCCCCCCCC(=O)O)C(=O)O)[C@@H](C)O)C(=O)NCC(=O)N[C@@H](CCCNC(=N)N)C(=O)N[C@@H](CC(C)C)C(=O)N[C@@H](CO)C(=O)N[C@@H](C)C(=O)N[C@@H](CCC(=O)O)C(=O)N[C@@H](CC(C)C)C(=O)N[C@@H](Cc1cnc[nH]1)C(=O)N[C@@H](CCC(=O)O)C(=O)N[C@@H](CC(C)C)C(=O)N[C@@H](C)C(=O)N[C@H](C(=O)N[C@@H](Cc1ccc(O)cc1)C(=O)N1CCC[C@H]1C(=O)N[C@@H](CCCNC(=N)N)C(=O)N[C@H](C(=O)N[C@@H](CCC(=O)O)C(=O)N[C@H](C(=O)NCC(=O)N[C@@H](CO)C(=O)NCC(=O)N[C@@H](CO)C(=O)N1CCC[C@H]1C(N)=O)[C@@H](C)O)[C@@H](C)O)[C@@H](C)O` ({C20 diacid-γGlu}-ASELSTAALGRLSAELHELATYPRTETGSGSP-NH2), the Activity in data set [1] was 45%; in data set [2] it was 67%. In addition, the EC50 in data set [4] is 0.023 nM; in [5], 0.067 nM. In data set [17], the Time is above 45 h. Also, the remaining at 1 µM in [18] is 100%. In addition, the solubility at 18 h in [7], in data set [8], in data set [9], in data set [10], in data set [11] and in data set [12] was at least 200 µM in each case. In addition, the solubility at 18 h in data set [13] and in data set [14] was at least 200 µM throughout. Besides, the IC50 in [19] is 0.07 nM; in data set [20] it was 3.99 nM; in [15], 2.61 nM; in [16] it was 2.94 nM.

(Values after ChEMBL document CHEMBL4420076, “Amylin and calcitonin receptor agonist” (2017).)
